Test results published in ChEMBL document CHEMBL5338754, “Identification of Binding Sites in the Nucleotide-Binding Domain of P-Glycoprotein for a Potent and Nontoxic Modulator, the Amine-Containing Monomeric Flavonoid FM04” (J Med Chem, 2023).

Key:
[1] = target: ATP-dependent translocase ABCB1 (Homo sapiens, UniProt P08183, I1115F); experiment: Negative allosteric modulator activity at human P-gp I1115F mutant expressed in HEK293FT cells assessed as increase in intracellular doxorubicin accumulation using doxorubicin as substrate at 1 uM incubated for 150 mins by microplate reader assay (reference value: 65.5 +/- 0.9 %); assay type: cell-based; conditions: 2.5 h
[2] = target: ATP-dependent translocase ABCB1 (Homo sapiens, UniProt P08183, Q1193A); experiment: Negative allosteric modulator activity at human P-gp Q1193A mutant expressed in HEK293FT cells assessed as increase in intracellular doxorubicin accumulation using doxorubicin as substrate at 1 uM incubated for 150 mins by microplate reader assay (reference value: 53.6 +/- 3 %); assay type: cell-based; conditions: 2.5 h
[3] = target: T1, ATP-dependent translocase ABCB1 (Homo sapiens, UniProt P08183); experiment: Binding affinity to human P-glycoprotein expressed in LCC6MDR cells assessed as stabilization of protein by measuring fluorescence at 100 uM incubated for 1 hr by Western blotting analysis; assay type: cell-based
T1 sequence (P08183 whole entry): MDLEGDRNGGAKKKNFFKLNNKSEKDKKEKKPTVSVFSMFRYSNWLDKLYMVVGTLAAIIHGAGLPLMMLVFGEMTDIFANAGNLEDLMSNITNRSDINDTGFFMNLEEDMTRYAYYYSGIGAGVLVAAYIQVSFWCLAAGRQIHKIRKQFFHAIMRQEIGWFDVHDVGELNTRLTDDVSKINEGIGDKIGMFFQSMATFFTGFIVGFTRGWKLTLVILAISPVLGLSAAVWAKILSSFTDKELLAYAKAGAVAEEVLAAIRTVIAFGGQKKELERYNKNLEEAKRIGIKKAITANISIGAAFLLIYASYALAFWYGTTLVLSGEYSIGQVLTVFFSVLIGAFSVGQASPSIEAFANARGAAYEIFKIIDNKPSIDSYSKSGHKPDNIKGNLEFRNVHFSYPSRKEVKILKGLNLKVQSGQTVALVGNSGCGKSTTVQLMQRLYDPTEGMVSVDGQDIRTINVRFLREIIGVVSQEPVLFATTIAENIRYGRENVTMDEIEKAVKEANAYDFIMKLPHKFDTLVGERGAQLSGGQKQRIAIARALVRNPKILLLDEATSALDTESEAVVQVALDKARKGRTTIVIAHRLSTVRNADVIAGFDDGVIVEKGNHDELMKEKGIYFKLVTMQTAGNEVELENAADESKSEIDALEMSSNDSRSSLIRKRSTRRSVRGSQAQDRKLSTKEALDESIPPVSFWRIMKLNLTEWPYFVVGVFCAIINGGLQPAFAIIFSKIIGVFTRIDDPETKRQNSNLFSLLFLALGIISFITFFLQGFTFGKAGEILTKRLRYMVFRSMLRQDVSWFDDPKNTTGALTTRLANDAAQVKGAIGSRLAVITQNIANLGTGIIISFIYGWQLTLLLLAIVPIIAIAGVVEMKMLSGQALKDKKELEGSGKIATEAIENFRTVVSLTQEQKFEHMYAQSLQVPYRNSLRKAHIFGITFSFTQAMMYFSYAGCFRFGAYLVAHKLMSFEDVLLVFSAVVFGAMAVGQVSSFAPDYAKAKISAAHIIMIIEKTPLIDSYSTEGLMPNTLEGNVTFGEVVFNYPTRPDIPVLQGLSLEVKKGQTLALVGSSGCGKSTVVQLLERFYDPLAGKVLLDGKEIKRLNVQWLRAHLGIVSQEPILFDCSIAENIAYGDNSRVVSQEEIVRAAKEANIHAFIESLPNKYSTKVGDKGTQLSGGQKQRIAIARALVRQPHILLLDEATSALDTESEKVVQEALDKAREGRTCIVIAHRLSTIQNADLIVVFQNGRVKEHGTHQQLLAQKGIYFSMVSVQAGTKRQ

[4] = target: T2, ATP-dependent translocase ABCB1 (Homo sapiens, UniProt P08183, T1226A); experiment: Negative allosteric modulator activity at human P-gp T1226A mutant expressed in HEK293FT cells assessed as increase in intracellular doxorubicin accumulation using doxorubicin as substrate at 1 uM incubated for 150 mins by microplate reader assay (reference value: 89 +/- 4 %); assay type: cell-based; conditions: 2.5 h
T2 sequence (P08183 whole entry T1226A): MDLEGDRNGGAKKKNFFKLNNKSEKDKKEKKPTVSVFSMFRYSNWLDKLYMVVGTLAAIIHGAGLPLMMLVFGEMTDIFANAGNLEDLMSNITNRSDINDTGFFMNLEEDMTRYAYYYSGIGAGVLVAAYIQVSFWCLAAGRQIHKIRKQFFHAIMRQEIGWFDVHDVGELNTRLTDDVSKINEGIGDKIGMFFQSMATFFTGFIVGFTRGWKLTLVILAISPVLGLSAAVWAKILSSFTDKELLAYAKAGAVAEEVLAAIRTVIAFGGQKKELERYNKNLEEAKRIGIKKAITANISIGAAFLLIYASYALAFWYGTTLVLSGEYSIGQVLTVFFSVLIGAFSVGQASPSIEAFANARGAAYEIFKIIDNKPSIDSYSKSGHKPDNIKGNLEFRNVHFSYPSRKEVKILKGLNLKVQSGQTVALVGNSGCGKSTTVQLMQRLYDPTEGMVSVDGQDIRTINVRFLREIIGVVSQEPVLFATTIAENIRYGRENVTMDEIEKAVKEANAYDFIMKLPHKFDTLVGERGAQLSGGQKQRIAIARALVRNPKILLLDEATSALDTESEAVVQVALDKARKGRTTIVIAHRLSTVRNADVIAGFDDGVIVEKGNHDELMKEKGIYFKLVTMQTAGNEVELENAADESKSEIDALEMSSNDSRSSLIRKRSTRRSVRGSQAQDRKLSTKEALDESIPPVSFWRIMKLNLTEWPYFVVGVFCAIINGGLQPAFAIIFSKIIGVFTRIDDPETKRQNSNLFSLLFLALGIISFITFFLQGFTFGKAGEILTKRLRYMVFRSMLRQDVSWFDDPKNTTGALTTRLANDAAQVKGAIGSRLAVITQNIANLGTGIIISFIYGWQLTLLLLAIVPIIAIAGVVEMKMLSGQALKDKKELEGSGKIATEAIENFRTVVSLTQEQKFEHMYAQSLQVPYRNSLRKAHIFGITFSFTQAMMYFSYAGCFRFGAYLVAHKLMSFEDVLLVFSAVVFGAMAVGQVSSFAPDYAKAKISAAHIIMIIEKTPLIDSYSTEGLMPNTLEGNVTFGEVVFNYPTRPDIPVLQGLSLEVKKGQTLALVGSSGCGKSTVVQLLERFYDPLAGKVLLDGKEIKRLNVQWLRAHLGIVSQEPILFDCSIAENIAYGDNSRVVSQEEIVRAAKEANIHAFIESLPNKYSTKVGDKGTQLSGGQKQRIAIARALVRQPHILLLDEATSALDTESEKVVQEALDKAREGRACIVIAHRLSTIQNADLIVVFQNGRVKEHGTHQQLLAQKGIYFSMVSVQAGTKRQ

[5] = target: ATP-dependent translocase ABCB1 (Homo sapiens, UniProt P08183, Q1193F); experiment: Activation of P-gp ATPase activity in human P-gp Q1193F mutant expressed in HEK293FT cell microsomes assessed as fold change of ATPase activity at 20 uM incubated for 1 hr in presence of ATP by Glo-luminescence based microplate reader assay relative to DMSO; design: species or system Microsome
[6] = target: ATP-dependent translocase ABCB1 (Mus musculus, UniProt P06795); experiment: Binding affinity to mouse P-glycoprotein expressed in Pichia pastoris assessed as stabilization of protein by measuring fluorescence at 100 uM incubated for 1 hr by Western blotting analysis
[7] = target: ATP-dependent translocase ABCB1 (Homo sapiens, UniProt P08183, T1226F); experiment: Negative allosteric modulator activity at human P-gp T1226F mutant expressed in HEK293FT cells assessed as reversal of P-gp mediated PTX resistance by measuring sensitivity fold change incubated for 5 days by MTS assay; assay type: cell-based; conditions: 120 h, time 5 day
[8] = target: ATP-dependent translocase ABCB1 (Homo sapiens, UniProt P08183, G1114A); experiment: Negative allosteric modulator activity at human P-gp G1114A mutant expressed in HEK293FT cells assessed as increase in intracellular doxorubicin accumulation using doxorubicin as substrate at 1 uM incubated for 150 mins by microplate reader assay (reference value: 98.8 +/- 1.4 %); assay type: cell-based; conditions: 2.5 h
[9] = target: ATP-dependent translocase ABCB1 (Homo sapiens, UniProt P08183, Q1193K); experiment: Negative allosteric modulator activity at human P-gp Q1193K mutant expressed in HEK293FT cells assessed as increase in intracellular doxorubicin accumulation using doxorubicin as substrate at 1 uM incubated for 150 mins by microplate reader assay (reference value: 69.1 +/- 1 %); assay type: cell-based; conditions: 2.5 h
[10] = target: ATP-dependent translocase ABCB1 (Homo sapiens, UniProt P08183, L1113A); experiment: Negative allosteric modulator activity at human P-gp L1113A mutant expressed in HEK293FT cells assessed as increase in intracellular doxorubicin accumulation using doxorubicin as substrate at 1 uM incubated for 150 mins by microplate reader assay (reference value: 45.6 +/- 1.5 %); assay type: cell-based; conditions: 2.5 h
[11] = target: T3, ATP-dependent translocase ABCB1 (Homo sapiens, UniProt P08183, I1115L); experiment: Negative allosteric modulator activity at human P-gp I1115L mutant expressed in HEK293FT cells assessed as fold change in intracellular doxorubicin accumulation using doxorubicin as substrate at 1 uM incubated for 150 mins by microplate reader assay relative to DMSO; assay type: cell-based; conditions: 2.5 h
T3 sequence (P08183 whole entry I1115L): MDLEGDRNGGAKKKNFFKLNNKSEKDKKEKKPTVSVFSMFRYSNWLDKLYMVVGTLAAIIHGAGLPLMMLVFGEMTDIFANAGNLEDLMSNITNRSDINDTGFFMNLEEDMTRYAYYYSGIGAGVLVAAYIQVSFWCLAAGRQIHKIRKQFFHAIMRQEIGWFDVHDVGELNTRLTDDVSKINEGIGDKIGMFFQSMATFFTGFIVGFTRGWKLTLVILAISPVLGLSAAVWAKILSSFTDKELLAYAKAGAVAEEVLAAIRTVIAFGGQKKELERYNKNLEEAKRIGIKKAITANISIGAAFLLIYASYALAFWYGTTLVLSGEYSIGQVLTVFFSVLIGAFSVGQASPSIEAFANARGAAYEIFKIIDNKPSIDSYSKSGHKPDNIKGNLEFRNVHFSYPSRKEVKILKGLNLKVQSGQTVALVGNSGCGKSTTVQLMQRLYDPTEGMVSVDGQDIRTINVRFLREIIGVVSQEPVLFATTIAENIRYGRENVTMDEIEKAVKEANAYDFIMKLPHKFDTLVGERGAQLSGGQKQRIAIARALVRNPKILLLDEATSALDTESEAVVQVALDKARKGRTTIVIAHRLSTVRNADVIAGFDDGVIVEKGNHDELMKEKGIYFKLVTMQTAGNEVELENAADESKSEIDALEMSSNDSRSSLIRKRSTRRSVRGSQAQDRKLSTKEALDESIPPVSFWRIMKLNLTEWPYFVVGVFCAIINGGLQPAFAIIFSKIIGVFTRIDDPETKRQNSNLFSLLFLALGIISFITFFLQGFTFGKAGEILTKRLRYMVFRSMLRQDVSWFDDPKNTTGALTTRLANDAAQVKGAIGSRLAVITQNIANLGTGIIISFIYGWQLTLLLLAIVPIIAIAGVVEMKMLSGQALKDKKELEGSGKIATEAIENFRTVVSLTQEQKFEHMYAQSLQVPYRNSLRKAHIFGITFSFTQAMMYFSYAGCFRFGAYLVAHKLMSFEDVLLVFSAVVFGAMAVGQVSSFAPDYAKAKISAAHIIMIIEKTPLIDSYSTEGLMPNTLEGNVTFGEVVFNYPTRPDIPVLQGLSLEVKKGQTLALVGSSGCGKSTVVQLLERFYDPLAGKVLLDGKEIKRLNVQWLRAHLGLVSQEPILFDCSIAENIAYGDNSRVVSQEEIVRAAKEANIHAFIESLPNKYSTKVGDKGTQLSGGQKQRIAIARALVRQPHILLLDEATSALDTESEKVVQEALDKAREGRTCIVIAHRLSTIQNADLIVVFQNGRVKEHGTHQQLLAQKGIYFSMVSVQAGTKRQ

[12] = target: T3, ATP-dependent translocase ABCB1; experiment: Negative allosteric modulator activity at human P-gp I1115L mutant expressed in HEK293FT cells assessed as reversal of P-gp mediated PTX resistance by measuring sensitivity fold change incubated for 5 days by MTS assay; assay type: cell-based; conditions: 120 h, time 5 day
[13] = target: ATP-dependent translocase ABCB1 (Homo sapiens, UniProt P08183, I1115M); experiment: Negative allosteric modulator activity at human P-gp I1115M mutant expressed in HEK293FT cells assessed as increase in intracellular doxorubicin accumulation using doxorubicin as substrate at 1 uM incubated for 150 mins by microplate reader assay (reference value: 97 +/- 3.1 %); assay type: cell-based; conditions: 2.5 h
[14] = target: ATP-dependent translocase ABCB1 (Homo sapiens, UniProt P08183, G1114I); experiment: Negative allosteric modulator activity at human P-gp G1114I mutant expressed in HEK293FT cells assessed as increase in intracellular doxorubicin accumulation using doxorubicin as substrate at 1 uM incubated for 150 mins by microplate reader assay (reference value: 94.7 +/- 2.7 %); assay type: cell-based; conditions: 2.5 h
[15] = target: T2, ATP-dependent translocase ABCB1; experiment: Negative allosteric modulator activity at human P-gp T1226A mutant expressed in HEK293FT cells assessed as fold change in intracellular doxorubicin accumulation using doxorubicin as substrate at 1 uM incubated for 150 mins by microplate reader assay relative to DMSO; assay type: cell-based; conditions: 2.5 h
[16] = target: T1, ATP-dependent translocase ABCB1; experiment: Negative allosteric modulator activity at human wildtype P-gp expressed in HEK293FT cells assessed as fold change in intracellular doxorubicin accumulation using doxorubicin as substrate at 1 uM incubated for 150 mins by microplate reader assay relative to DMSO; assay type: cell-based; conditions: 2.5 h
[17] = target: ATP-dependent translocase ABCB1 (Homo sapiens, UniProt P08183, Q1193T); experiment: Negative allosteric modulator activity at human P-gp Q1193T mutant expressed in HEK293FT cells assessed as fold change in intracellular doxorubicin accumulation using doxorubicin as substrate at 1 uM incubated for 150 mins by microplate reader assay relative to DMSO; assay type: cell-based; conditions: 2.5 h
Sequence of ATP-dependent translocase ABCB1 (Homo sapiens, UniProt P08183, Q1193T) (P08183 whole entry Q1193T): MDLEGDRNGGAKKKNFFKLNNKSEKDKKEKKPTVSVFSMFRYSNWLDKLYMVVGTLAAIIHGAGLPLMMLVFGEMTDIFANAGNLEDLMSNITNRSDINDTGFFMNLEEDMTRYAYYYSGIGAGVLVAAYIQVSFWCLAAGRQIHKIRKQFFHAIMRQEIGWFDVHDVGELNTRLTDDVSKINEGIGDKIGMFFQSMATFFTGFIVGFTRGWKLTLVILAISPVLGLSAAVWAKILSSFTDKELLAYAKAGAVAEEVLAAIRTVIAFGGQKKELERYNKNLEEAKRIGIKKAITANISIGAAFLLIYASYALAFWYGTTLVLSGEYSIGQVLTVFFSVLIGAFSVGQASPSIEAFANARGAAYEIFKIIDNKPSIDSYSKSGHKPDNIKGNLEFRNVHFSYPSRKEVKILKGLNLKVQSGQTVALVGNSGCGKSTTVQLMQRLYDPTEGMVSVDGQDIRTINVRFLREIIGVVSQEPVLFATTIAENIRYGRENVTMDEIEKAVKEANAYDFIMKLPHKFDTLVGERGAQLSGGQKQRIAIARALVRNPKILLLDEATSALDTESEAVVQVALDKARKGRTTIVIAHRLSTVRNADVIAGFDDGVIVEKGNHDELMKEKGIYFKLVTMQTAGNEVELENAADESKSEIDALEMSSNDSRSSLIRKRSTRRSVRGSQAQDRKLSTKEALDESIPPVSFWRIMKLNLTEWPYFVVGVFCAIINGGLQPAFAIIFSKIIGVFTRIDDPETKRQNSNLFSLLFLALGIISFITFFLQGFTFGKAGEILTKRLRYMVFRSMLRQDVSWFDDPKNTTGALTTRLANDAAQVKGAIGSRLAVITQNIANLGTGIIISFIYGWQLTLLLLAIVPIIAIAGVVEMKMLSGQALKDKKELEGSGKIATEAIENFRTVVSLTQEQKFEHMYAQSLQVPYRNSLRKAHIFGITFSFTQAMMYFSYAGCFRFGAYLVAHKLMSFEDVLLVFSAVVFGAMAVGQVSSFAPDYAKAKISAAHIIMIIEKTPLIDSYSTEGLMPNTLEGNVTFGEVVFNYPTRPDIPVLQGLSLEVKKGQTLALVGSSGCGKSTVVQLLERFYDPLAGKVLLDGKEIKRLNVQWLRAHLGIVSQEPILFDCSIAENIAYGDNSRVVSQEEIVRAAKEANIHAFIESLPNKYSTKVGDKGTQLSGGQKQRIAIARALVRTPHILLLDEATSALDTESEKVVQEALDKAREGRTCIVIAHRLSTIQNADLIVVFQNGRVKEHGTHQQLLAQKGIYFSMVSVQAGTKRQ

[18] = target: P-gp (ABCB1) Q1193N mutant (Homo sapiens, UniProt P08183, Q1193N); experiment: Activation of P-gp ATPase activity in human P-gp Q1193N mutant expressed in HEK293FT cell microsomes assessed as fold change of ATPase activity at 20 uM incubated for 1 hr in presence of ATP by Glo-luminescence based microplate reader assay relative to DMSO; design: species or system Microsome; conditions: read-out: FC
[19] = target: ATP-dependent translocase ABCB1 (Homo sapiens, UniProt P08183, I1115E); experiment: Negative allosteric modulator activity at human P-gp I1115E mutant expressed in HEK293FT cells assessed as increase in intracellular doxorubicin accumulation using doxorubicin as substrate at 1 uM incubated for 150 mins by microplate reader assay (reference value: 94.7 +/- 5.1 %); assay type: cell-based; conditions: 2.5 h
[20] = target: ATP-dependent translocase ABCB1 (Homo sapiens, UniProt P08183, T1226W); experiment: Negative allosteric modulator activity at human P-gp T1226W mutant expressed in HEK293FT cells assessed as fold change in intracellular doxorubicin accumulation using doxorubicin as substrate at 1 uM incubated for 150 mins by microplate reader assay relative to DMSO; assay type: cell-based; conditions: 2.5 h

With `O=c1cc(-c2ccc(OCCOCCNCc3ccccc3)cc2)oc2ccccc12` as the compound, how does the Activity [1] read?
Its Activity is 83.8%.

What about the Activity [2] of the same compound?
Its Activity is 59.8%.

What about the Activity [3] of the same compound?
The Activity was “Active”.

And the Activity [4]?
Its Activity is 85.8%.

What about the “fold change (FC)” value [5] of the same compound?
The value was 1.1.

And the Activity [6]?
Its Activity is “Not Active”.

What about the “fold change (FC)” value [7] of the same compound?
Its value is 59.4.

And the Activity [8]?
The Activity was 93.5%.

What about the Activity [9] of the same compound?
Its Activity is 87.8%.

And the Activity [10]?
Its Activity is 82.2%.

What about the “fold change (FC)” value [11] of the same compound?
Its value is 1.7.

What about the “fold change (FC)” value [12] of the same compound?
The value was 45.8.

What about the Activity [13] of the same compound?
Its Activity is 93.3%.

And the Activity [14]?
Its Activity is 98.9%.

And the “fold change (FC)” value [15]?
Its value is 1.

And the “fold change (FC)” value [16]?
The value was 1.9.

And the “fold change (FC)” value [17]?
Its value is 1.3.

What about the fold induction at 1 h, 20 µM [18] of the same compound?
The fold induction at 1 h, 20 µM was 1.7.

What about the Activity [19] of the same compound?
The Activity was 97.8%.

What about the “fold change (FC)” value [20] of the same compound?
Its value is 1.5.
